Values of other authors, collected in patent US20090022788A1, “DIETARY SUPPLEMENT FOR HEALING OR REGRESSING SYMPTOMS OF GASTROESOPHAGEAL REFLUX DISEASE, GASTRITIS AND ULCERS” (priority 2006, published 2009).

System: spontaneous gastric ulcers
Conditions: young pigs, 4-week administration in the diet

COc1ccc2[nH]cc(CCNC(C)=O)c2c1 [melatonin, N-Acetyl-5-methoxytryptamine]
incidence of spontaneous gastric ulcers: significantly reduced
